Test [1] relates to SK-BR-3 cells. The experiment in a line: SK-BR-3 viability (Cell Titer Glo, propidium iodide), Bliss synergy. It counts as cell-based. Conditions: QVD-OPh 10 μM, propidium iodide staining, 72 hours. Background: Cellular ATP, detected with luciferase, serves as a proxy for viable cell number.
For test [2], the system named is MDA-MB-453 breast cancer cell line. The experiment in a line: 3 days CellTiterGlo viability, checkerboard combination, MDA-MB-453. The settings on record: single agent. Type of test: cell-based. The protocol: (§1) In addition, all media contained penicillin (100 IU/ml), streptomycin (100 μg/ml) and L-glutamine (2 mM).
(§2) Cell lines were cultured at 37° C. in a humidified atmosphere containing 5% CO2 and expanded in T-150 flasks. In all cases cells were thawed from frozen stocks, expanded through ≥1 passage using appropriate dilutions, counted and assessed for viability using a CASY cell counter prior to plating 150 μl/well at the densities indicated in Table 2 into 96-well plates.
(§3) Stock solutions of compounds were prepared at a concentration of 5 mM in DMSO and stored at −20° C.
(§4) In order to analyze the activity of the compounds in single agent or in combination, cells were seeded and treated with seven or eight 3.16-fold serial dilutions of each compound dispensed, either individually or in all possible permutations in a checkerboard fashion, directly into the cell assay plates as indicated in FIGS. 5 and 6. Effects of the single agents as well as their checkerboard combinations on cell viability were assessed after 3 days of incubation at 37° C./5% CO2 by quantification of cellular ATP levels using CellTiterGlo at 75 μL reagent/well. At least two independent experiments, each one performed in duplicates, were performed. Luminescence was quantified on a multipurpose plate reader.
(§5) Single agent IC50s were calculated using standard four-parametric curve fitting. Potential synergistic interactions between compound combinations were assessed using the Excess Inhibition 2D matrix according to the Loewe additivity model and are reported as Synergy Score (Lehar et al. 2009). All calculations were performed using Clalice™ Bioinformatics Software available in Horizon website.

Test [3] concerns H522 lung cancer cell line. The experiment in a line: 3 days CellTiterGlo viability, checkerboard combination, H522. Type of test: cell-based. The settings on record: single agent. The procedure: as §1, §2, §3, §4, §5
The test system of test [4] is 2 breast cancer cell lines (MDA-MB-453 and MDA-MB-468) and one lung cancer cell line (H522). The experiment in a line: 3 days CellTiterGlo viability, summary of the three cell lines. Type of test: cell-based. The settings on record: for cell lines tested whose growth was inhibited by the single agent: three cell lines tested. The procedure:
as §1, §2, §3, §4, §5

Test [5] relates to MDA-MB-468 breast cancer cell line. The experiment in a line: 3 days CellTiterGlo viability, checkerboard combination, MDA-MB-468. Type of test: cell-based. The settings on record: single agent. The procedure:
as §1, §2, §3, §4, §5

The test system of test [6] is TNBC PDX models 110T, 838T and PDX OD-BRE-0589. The settings on record: Compound 2 25 mg/kg i.v. weekly for six weeks; three TNBC PDX models.
The subject of test [7] is HCC1395 breast cancer cell line. The experiment in a line: 72 hours CellTiter-Glo proliferation assay, HCC1395. Type of test: cell-based. Conditions: Homo sapiens, single agent, read-out: Abs IC50. The protocol: (§6) Compounds were dissolved in 100% DMSO (Sigma, Catalog # D2438-50 ML) at a stock concentration of 10 mM and stored at −20° C. until use. Compounds were arrayed in 2 ml deep 96-well plates (Greiner bio-one, catalog number 780271) serially diluted 3-fold. Compound 1 was used over a concentration range of 0.0-10.0 μM. Paclitaxel was used over a concentration range of 0.0-1.0 μM in breast cancer cells and 0.0-2.0 μM range in lung cancer cells.
(§7) All cell lines were purchased from the American Type Culture Collection and cultured according to vendor recommendations. […] All cell lines were determined to be free of mycoplasma contamination by a PCR detection assay performed at Idexx Radil (Columbia, Mo., USA) and authenticated by SNP analysis. […] Cells were expanded to T-75 flasks and assessed for viability using a Beckman-Coulter ViCell counter prior to plating. […]
(§8) Cell proliferation was measured in 72 hours CellTiter-Glo™ (CTG) assays and all results shown are the result of at least triplicate measurements. […] After 72 hours of compound treatment the effects of compounds on cell proliferation was determined using the CellTiter-Glo™ Luminescent Cell Viability Assay (Promega, Catalog # G7573). This is a homogeneous method to determine the number of viable cells in culture based on quantitation of the ATP present, which signals the presence of metabolically active cells. […]

Test [8] has as its system MDA-MB-468 breast cancer cell line. The experiment in a line: 72 hours CellTiter-Glo proliferation assay, MDA-MB-468. Conditions: Homo sapiens, single agent, read-out: Abs IC50. Type of test: cell-based. The procedure:
as §6, §7, §8

For test [9], the system named is HCC70 breast cancer cell line. The experiment in a line: 72 hours CellTiter-Glo proliferation assay, HCC70. It counts as cell-based. The settings on record: Homo sapiens, single agent, read-out: Abs IC50. The procedure: as §6, §7, §8
Test [10] deals with HCC38 breast cancer cell line. The experiment in a line: 72 hours CellTiter-Glo proliferation assay, HCC38. Type of test: cell-based. Conditions: Homo sapiens, single agent, read-out: Abs IC50. The procedure:
as §6, §7, §8

Test [11] deals with BT-474 breast cancer cell line. The experiment in a line: 72 hours CellTiter-Glo proliferation assay, BT-474. Type of test: cell-based. The settings on record: Homo sapiens, single agent, read-out: Abs IC50. The protocol: as §6, §7, §8
In test [12] the test system is HCC1143 breast cancer cell line. The experiment in a line: 72 hours CellTiter-Glo proliferation assay, HCC1143. Conditions: Homo sapiens, single agent, read-out: Abs IC50. It counts as cell-based. The procedure: as §6, §7, §8
In test [13] the test system is Cal-148 breast cancer cell line. The experiment in a line: 72 hours CellTiter-Glo proliferation assay, Cal-148. Type of test: cell-based. The settings on record: Homo sapiens, single agent, read-out: Abs IC50. The protocol:
as §6, §7, §8

The subject of test [14] is NCI-H23 lung cancer cell line. The experiment in a line: 72 hours CellTiter-Glo proliferation assay, NCI-H23. Type of test: cell-based. The settings on record: Homo sapiens, single agent, read-out: Abs IC50. The procedure:
as §6, §7, §8

The test system of test [15] is Hs 578T breast cancer cell line. The experiment in a line: 72 hours CellTiter-Glo proliferation assay, Hs 578T. Type of test: cell-based. Conditions: Homo sapiens, single agent, read-out: Abs IC50. The protocol:
as §6, §7, §8

Test [16] concerns BT-20 breast cancer cell line. The experiment in a line: 72 hours CellTiter-Glo proliferation assay, BT-20. Type of test: cell-based. The settings on record: Homo sapiens, single agent, read-out: Abs IC50. The protocol: as §6, §7, §8
Test [17] deals with MCF7 breast cancer cell line. The experiment in a line: 72 hours CellTiter-Glo proliferation assay, MCF7. Type of test: cell-based. The settings on record: Homo sapiens, single agent, read-out: Abs IC50. The protocol:
as §6, §7, §8

Test [18] relates to SK-BR-3 breast cancer cell line. The experiment in a line: 72 hours CellTiter-Glo proliferation assay, SK-BR-3. Type of test: cell-based. The settings on record: Homo sapiens, single agent, read-out: Abs IC50. The procedure: as §6, §7, §8
Test [19] concerns NCI-H522 lung cancer cell line. The experiment in a line: 72 hours CellTiter-Glo proliferation assay, NCI-H522. Type of test: cell-based. Conditions: Homo sapiens, single agent, read-out: Abs IC50. The protocol: as §6, §7, §8
The subject of test [20] is BT-549 breast cancer cell line. The experiment in a line: 72 hours CellTiter-Glo proliferation assay, BT-549. Type of test: cell-based. Conditions: Homo sapiens, single agent, read-out: Abs IC50. The procedure: as §6, §7, §8
The test system of test [21] is HCC1937 breast cancer cell line. The experiment in a line: 72 hours CellTiter-Glo proliferation assay, HCC1937. Type of test: cell-based. Conditions: Homo sapiens, single agent, read-out: Abs IC50. The protocol:
as §6, §7, §8

Test [22] relates to MDA-MB-231 breast cancer cell line. The experiment in a line: 72 hours CellTiter-Glo proliferation assay, MDA-MB-231. Type of test: cell-based. Conditions: Homo sapiens, single agent, read-out: Abs IC50. The procedure:
as §6, §7, §8

Test [23] relates to MDA-MB-231 xenografts. The experiment in a line: MDA-MB-231 breast xenograft model, antitumor efficacy. Type of test: in vivo, female nude rats. Conditions: paclitaxel 7.5 mg/kg iv QW.
For test [24], the system named is HCC1500 breast cancer cell line. The experiment in a line: 72 hours CellTiter-Glo proliferation assay, HCC1500. Conditions: single agent, read-out: Abs IC50. It counts as cell-based. The protocol: as §6, §7, §8
Test [25] deals with A549 lung cancer cell line. The experiment in a line: 72 hours CellTiter-Glo proliferation assay, A549. Type of test: cell-based. Conditions: Homo sapiens, single agent, read-out: Abs IC50. The procedure: as §6, §7, §8
Test [26] concerns MDA-MB-157 breast cancer cell line. The experiment in a line: 72 hours CellTiter-Glo proliferation assay, MDA-MB-157. Type of test: cell-based. Conditions: Homo sapiens, single agent, read-out: Abs IC50. The procedure:
as §6, §7, §8

For test [27], the system named is MDA-MB-436 breast cancer cell line. The experiment in a line: 72 hours CellTiter-Glo proliferation assay, MDA-MB-436. It counts as cell-based. Conditions: Homo sapiens, single agent, read-out: Abs IC50. The procedure:
as §6, §7, §8

The subject of test [28] is MDA-MB-453 breast cancer cell line. The experiment in a line: 72 hours CellTiter-Glo proliferation assay, MDA-MB-453. It counts as cell-based. Conditions: Homo sapiens, single agent, read-out: Abs IC50. The protocol: as §6, §7, §8
In test [29] the test system is HCC1954 breast cancer cell line. The experiment in a line: 72 hours CellTiter-Glo proliferation assay, HCC1954. Type of test: cell-based. The settings on record: Homo sapiens, single agent, read-out: Abs IC50. The procedure:
as §6, §7, §8

Molecules are shown by their SMILES.

`CC(C)[C@H](NC(=O)c1ccc2ccccc2n1)C(=O)N[C@@H](CC(=O)O)C(=O)COc1c(F)cccc1F` [QVD-OPH, QVD-OPh hydrate]: the “effect on cell death induced by docetaxel and Compound 2” value in test [1] is listed as “efficiently blocked cell death”.
Take `Cc1c(-c2c(-c3ccc(F)o3)sc3ncnc(O[C@H](Cc4ccccc4OCc4ccnn4CC(F)(F)F)C(=O)O)c23)ccc(OCCN2CCN(C)CC2)c1Cl` [Compound 2, (2R)-2-{[(5Sa)-5-{3-chloro-2-methyl-4-[2-(4-methylpiperazin-1-yl)ethoxy]phenyl}-6-(5-fluorofuran-2-yl)thieno[2,3-d]pyrimidin-4-yl]oxy}-3-(2-{[1-(2,2,2-trifluoroethyl)-1H-pyrazol-5-yl]methoxy}phenyl)propanoic acid]: the IC50 – broadly, the concentration that inhibits the measured activity by half – in test [2] is over 2000 nM; in test [3] (H522 cell line) it was 140 nM; in test [5], over 2000 nM. In addition, the “Mean of Max Inh” value is listed as 21.0% in [2]; 92.0% in test [3] (H522, 3 days); 24.0% in [5]. The “cell lines tested whose growth was inhibited by the single agent” value in test [4] is on record as 1/3. Further, in test [6], the “inhibition of tumor growth, single agent” value is reported as “insufficient in inhibiting tumor growth”.
As to `CC(=O)O[C@H]1C(=O)[C@@]2(C)[C@H]([C@H](OC(=O)c3ccccc3)[C@]3(O)C[C@H](OC(=O)[C@H](O)[C@@H](NC(=O)c4ccccc4)c4ccccc4)C(C)=C1C3(C)C)[C@]1(OC(C)=O)CO[C@@H]1C[C@@H]2O` [Paclitaxel, paclitaxel, reference compound], the IC50 in test [7] is 8.03 nM; in test [8] it was 3.07 nM; in test [9], 8.39 nM; in test [2] (Homo sapiens, 72 h), over 1000 nM; in test [10], 4.33 nM; in test [11], 1.7 nM. In addition, the IC50 stood at 9.43 nM in test [12]; 0.2 nM in test [3] (Homo sapiens, NCI-H522, 72 h, H522, 3 days); 4.25 nM in test [13]; 0.22 nM in test [14]; 0.363 nM in test [15]; 5.97 nM in test [16]. For the same compound, the IC50 was 10.4 nM in test [17]; under 1 nM in test [4] (single agent, 2/3 lines tested, read-out: IC50 in the cell lines inhibited); 0.9 nM in test [5] (Homo sapiens, 72 h); 2.66 nM in [18]; 0.48 nM in test [19]; 8.82 nM in test [20]. Besides, the IC50 in test [21] was 11.6 nM; in [22], 17.5 nM; in [24] it was over 1000 nM; in test [25], 0.163 nM; in test [26], over 1000 nM; in test [27], 14.7 nM. For the same compound, the IC50 in test [28] worked out at 4.2 nM; in [29] it was 6.5 nM. The “Mean of Max Inh” value in test [2] is 37.0%; in [3] (H522, 3 days), 61.0%; in test [5], 75.0%. Further, the “cell lines tested whose growth was inhibited by the single agent” value in test [4] was 2/3. Besides, the T/C % in test [23] came out at 34%.

Source of the values: patent publication US10765680B2, “Combination of a MCL-1 inhibitor and a taxane compound, uses and pharmaceutical compositions thereof” (priority 2017, dated 2020).
